This is an account of results in US9394289B2, “Inhibitors of c-fms kinase” (Janssen Pharmaceutica NV, priority 2006, dated 2016).

Assay [1] deals with mouse bone-marrow derived macrophages (BMDM). Description: CSF-1-driven mouse bone-marrow derived macrophages proliferation assay (BrDU incorporation). To be noted: Mus musculus, BMDM, 30 hrs culture, read-out: mCSF driven proliferation BMDM (Mouse) IC-50. Format: cell-based. On the procedure: CSF-1-Driven Mouse Bone-Marrow Derived Macrophages Assay
Macrophages are derived by culturing mouse bone marrow in alpha-MEM supplemented with 10% FCS and 50 ng/ml recombinant mouse CSF-1 in bacteriologic dishes. On the sixth day, macrophages are detached from dishes, washed, and resuspended to 0.05 million cells/ml in alpha-MEM containing 10% FCS. One hundred ul of cell suspension are distributed per well into 96 well culture plates. Wells are further supplemented with the addition of 50 ul media containing 15 ng/ml CSF-1, 3 uM Indomethacin, and 3× of a dilution series of test compounds. The cells are cultured for 30 hrs at 37 degrees and 5% CO2. During the final six hours, cultures are supplemented with an additional 30 ul of media containing a 1:500 dilution of bromodeoxyuridine (BrDU). At the end of the culture period, the plates are spun at 1000 RPM for 1 minute and 130 ul of media is removed with a pipet and replaced with 150 ul of fixative solution for 1 hour @ room temperature. The fixative is then dispelled from the plates and the plates allowed to air dry. Incorporation of BrDU into the fixed, dried cells is quantified using a specific ELISA.

For a further assay, the target named is c-fms (Homo sapiens (Human), UniProt P07333). Nature of the assay: Autophosphorylation fluorescence polarization competition immunoassay for c-fms inhibition. Format: biochemical. To be noted: averages of three independent measurements; table head says 1 nM c-fms, method says 10 nM c-fms, 1 mM ATP; read-out: 1 nM c-fms; peptide Pi assay IC-50. The procedure: Fluorescence Polarization Competition Immunoassay
c-fms, sequence (P07333 20-972): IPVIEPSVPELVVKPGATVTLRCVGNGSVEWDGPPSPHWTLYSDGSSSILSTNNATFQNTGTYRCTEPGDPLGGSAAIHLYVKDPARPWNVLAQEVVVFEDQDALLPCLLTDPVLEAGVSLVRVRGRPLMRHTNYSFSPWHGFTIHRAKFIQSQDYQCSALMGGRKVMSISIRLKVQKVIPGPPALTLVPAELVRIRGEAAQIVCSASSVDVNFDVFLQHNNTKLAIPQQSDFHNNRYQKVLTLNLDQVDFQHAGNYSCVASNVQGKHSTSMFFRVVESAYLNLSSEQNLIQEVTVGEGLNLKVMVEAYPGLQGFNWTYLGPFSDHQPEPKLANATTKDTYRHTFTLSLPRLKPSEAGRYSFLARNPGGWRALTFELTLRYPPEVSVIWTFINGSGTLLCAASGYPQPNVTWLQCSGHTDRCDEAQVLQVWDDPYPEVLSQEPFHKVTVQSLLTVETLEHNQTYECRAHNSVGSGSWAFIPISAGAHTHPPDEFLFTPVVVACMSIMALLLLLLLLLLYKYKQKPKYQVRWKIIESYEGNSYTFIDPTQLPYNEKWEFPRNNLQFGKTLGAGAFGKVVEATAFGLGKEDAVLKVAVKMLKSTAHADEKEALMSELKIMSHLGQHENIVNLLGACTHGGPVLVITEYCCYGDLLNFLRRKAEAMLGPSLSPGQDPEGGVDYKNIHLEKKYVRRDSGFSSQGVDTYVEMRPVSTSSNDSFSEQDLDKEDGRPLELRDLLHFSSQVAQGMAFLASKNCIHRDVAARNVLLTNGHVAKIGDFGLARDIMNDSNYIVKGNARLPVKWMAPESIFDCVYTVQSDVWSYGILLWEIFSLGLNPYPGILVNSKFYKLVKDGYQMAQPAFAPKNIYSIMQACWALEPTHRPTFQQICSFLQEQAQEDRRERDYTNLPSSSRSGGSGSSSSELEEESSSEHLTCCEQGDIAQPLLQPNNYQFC
The assay buffer used was 100 mM 4-(2-hydroxyethyl)piperazine 1-ethanesulfonic acid (HEPES), pH 7.5, 1 mM 1,4-dithio-DL-threitol (DTT), 0.01% (v/v) Tween-20. Compounds were diluted in assay buffer containing 4% dimethylsulfoxide (DMSO) just prior to the assay. To each well, 5 μL of compound were added followed by the addition of 3 μL of a mix containing 33 nM c-fms (Johnson & Johnson PRD) and 16.7 mM MgCl2 (Sigma) in assay buffer. The kinase reaction was initiated by adding 2 μL of 5 mM ATP (Sigma) in assay buffer. […] Control reactions were ran in each plate: in positive and negative control wells, assay buffer (made 4% in DMSO) was substituted for the compound; in addition, positive control wells received 1.2 μL of 50 mM ethylenediaminetetraaceticacid (EDTA).
The plates were incubated at room temperature for 45 min. At the end of the incubation, the reaction was quenched with 1.2 μL of 50 mM EDTA (EDTA was not added to the positive control wells at this point; see above). Following a 5-min incubation, each well received 10 μL of a 1:1:3 mixture of anti-phosphotyrosine antibody, 10×, PTK green tracer, 10× (vortexed), FP dilution buffer, respectively (all from PanVera, cat. #P2837). The plate was covered, incubated for 30 min at room temperature and the fluorescence polarization was read on the Analyst. The instrument settings were: 485 nm excitation filter; 530 nm emission filter; Z height: middle of well; G factor: 0.93. […] The reported IC50 values are averages of three independent measurements.

The structures appear in SMILES notation. Counter-ions that a name gives are not always drawn.

Turning to `CC1(C)CC=C(c2cc(C3(N4CCN(CC(=O)O)CC4)CCOCC3)ccc2NC(=O)c2ncc(C#N)[nH]2)CC1` [Example 10, (4-{4-[4-[(5-Cyano-1H-imidazole-2-carbonyl)-amino]-3-(4,4-dimethyl-cyclohex-1-enyl)-phenyl]-tetrahydro-pyran-4-yl}-piperazin-1-yl)-acetic acid trifluoroacetic acid salt], the values for the IC50 (in assay [1]; at c-fms) were more than 300 nM and 7.9 nM, respectively.
For the compound `CC1(C)CC=C(c2cc(C3(O)CCSCC3)ccc2NC(=O)c2nc(C#N)c[nH]2)CC1` [Example 11, 4-Cyano-1H-imidazole-2-carboxylic acid [2-(4,4-dimethyl-cyclohex-1-enyl)-4-(4-hydroxy-tetrahydro-thiopyran-4-yl)-phenyl]-amide], the IC50 was determined as 35 nM in assay [1] and 2.9 nM on c-fms.
Taken in the same sequence, the figures for `CC1(C)CC=C(c2cc(C3(O)CCS(=O)(=O)CC3)ccc2NC(=O)c2nc(C#N)c[nH]2)CC1` [Example 12, 4-Cyano-1H-imidazole-2-carboxylic acid [2-(4,4-dimethyl-cyclohex-1-enyl)-4-(4-hydroxy-1,1-dioxo-hexahydro-1λ^6-thiopyran-4-yl)-phenyl]-amide] were 31 nM and 1.1 nM.
Take `CC(=O)N1CCC(N)(c2ccc(NC(=O)c3nc(C#N)c[nH]3)c(C3=CCC(C)(C)CC3)c2)CC1` [Example 13, 4-Cyano-1H-imidazole-2-carboxylic acid [4-(1-acetyl-4-amino-piperidin-4-yl)-2-(4,4-dimethyl-cyclohex-1-enyl)-phenyl]-amide acetic acid salt]: the IC50 in assay [1] came to 8.1 nM; on c-fms, 0.8 nM.
Taken in the same sequence, the figures for `N#Cc1c[nH]c(C(=O)Nc2ccc(C3(O)CCSCC3)cc2C2=CCCCC2)n1` [Example 14, 4-Cyano-1H-imidazole-2-carboxylic acid [2-cyclohex-1-enyl-4-(4-hydroxy-tetrahydro-thiopyran-4-yl)-phenyl]-amide] were 9.5 nM and 3.9 nM.
For the compound `COC(=O)C1(c2ccc(NC(=O)c3nc(C#N)c[nH]3)c(C3=CCC(C)(C)CC3)c2)CCOCC1` [Example 16, 4-[4-[(4-Cyano-1H-imidazole-2-carbonyl)-amino]-3-(4,4-dimethyl-cyclohex-1-enyl)-phenyl]-tetrahydro-pyran-4-carboxylic acid methyl ester], the IC50 is 46 nM in assay [1] and 0.67 nM on c-fms.
For `CC1(C)CC=C(c2cc(C3(C(=O)O)CCOCC3)ccc2NC(=O)c2nc(C#N)c[nH]2)CC1` [Example 17, 4-[4-[(4-Cyano-1H-imidazole-2-carbonyl)-amino]-3-(4,4-dimethyl-cyclohex-1-enyl)-phenyl]-tetrahydro-pyran-4-carboxylic acid] the same measures were more than 300 nM and 0.56 nM.
Taken in the same sequence, the figures for `N#Cc1c[nH]c(C(=O)Nc2ccc(C3(C(=O)O)CCOCC3)cc2C2=CCCCC2)n1` [Example 18, 4-{4-[(4-Cyano-1H-imidazole-2-carbonyl)-amino]-3-cyclohex-1-enyl-phenyl}-tetrahydro-pyran-4-carboxylic acid] were 300 nM and 3.6 nM.
For `N#Cc1c[nH]c(C(=O)Nc2ccc(C3(C(N)=O)CCOCC3)cc2C2=CCCCC2)n1` [Example 19, 4-Cyano-1H-imidazole-2-carboxylic acid [4-(4-carbamoyl-tetrahydro-pyran-4-yl)-2-cyclohex-1-enyl-phenyl]-amide] the same measures were 19 nM and 1.8 nM.
On to `N#Cc1c[nH]c(C(=O)Nc2ccc(C3(CO)CCOCC3)cc2C2=CCCCC2)n1` [Example 20, 4-Cyano-1H-imidazole-2-carboxylic acid [2-cyclohex-1-enyl-4-(4-hydroxymethyl-tetrahydro-pyran-4-yl)-phenyl]-amide], for which the results for the IC50 (in assay [1]; on c-fms) were 20 nM and 1.8 nM, respectively.
`N#Cc1c[nH]c(C(=O)Nc2ccc(C3(CN4CCOCC4)CCOCC3)cc2C2=CCCCC2)n1` [Example 21, 4-Cyano-1H-imidazole-2-carboxylic acid [2-cyclohex-1-enyl-4-(4-morpholin-4-ylmethyl-tetrahydro-pyran-4-yl)-phenyl]-amide]: the IC50 in assay [1] worked out at 7.9 nM; at c-fms, 1.6 nM.
For `CC1(C)CC=C(c2cc(C3(c4nn[nH]n4)CCOCC3)ccc2NC(=O)c2nc(C#N)c[nH]2)CC1` [Example 22, 4-Cyano-1H-imidazole-2-carboxylic acid {2-(4,4-dimethyl-cyclohex-1-enyl)-4-[4-(2H-tetrazol-5-yl)-tetrahydro-pyran-4-yl]-phenyl}-amide] the same measures were more than 300 nM and 0.8 nM.
Taken in the same sequence, the figures for `CC1(C)CC=C(c2cc(C3(C(=O)O)CCOCC3)ccc2NC(=O)c2cc(C#N)c[nH]2)CC1` [Example 23, 4-[4-[(4-Cyano-1H-pyrrole-2-carbonyl)-amino]-3-(4,4-dimethyl-cyclohex-1-enyl)-phenyl]-tetrahydro-pyran-4-carboxylic acid] were more than 300 nM and 6.4 nM.
For `CC1(C)CC=C(c2cc(C3(C(N)=O)CCOCC3)ccc2NC(=O)c2nc(C#N)c[nH]2)CC1` [Example 24, 4-Cyano-1H-imidazole-2-carboxylic acid [4-(4-carbamoyl-tetrahydro-pyran-4-yl)-2-(4,4-dimethyl-cyclohex-1-enyl)-phenyl]-amide] the same measures were 14 nM and 0.8 nM.
For `CC1(C)CC=C(c2cc(C3(CO)CCOCC3)ccc2NC(=O)c2nc(C#N)c[nH]2)CC1` [Example 25, 4-Cyano-1H-imidazole-2-carboxylic acid [2-(4,4-dimethyl-cyclohex-1-enyl)-4-(4-hydroxymethyl-tetrahydro-pyran-4-yl)-phenyl]-amide], the IC50 in assay [1] came to 6.5 nM; at c-fms it was 0.49 nM.
Take `CC1(C)CC=C(c2cc(C3(CN4CCOCC4)CCOCC3)ccc2NC(=O)c2nc(C#N)c[nH]2)CC1` [Example 26, 4-Cyano-1H-imidazole-2-carboxylic acid [2-(4,4-dimethyl-cyclohex-1-enyl)-4-(4-morpholin-4-ylmethyl-tetrahydro-pyran-4-yl)-phenyl]-amide]: the IC50 came to 5.3 nM in assay [1] and 3 nM at c-fms.
For `N#Cc1c[nH]c(C(=O)Nc2ccc(C3(O)CCOCC3)cc2C2=CCCCC2)n1` [Example 27, 4-Cyano-1H-imidazole-2-carboxylic acid [2-cyclohex-1-enyl-4-(4-hydroxy-tetrahydro-pyran-4-yl)-phenyl]-amide], the IC50 in assay [1] is 4.5 nM; at c-fms it was 2.9 nM.
Turning to `CN(C)C(=O)C1(c2ccc(NC(=O)c3nc(C#N)c[nH]3)c(C3=CCCCC3)c2)CCOCC1` [Example 28, 4-Cyano-1H-imidazole-2-carboxylic acid [2-cyclohex-1-enyl-4-(4dimethylcarbamoyl-tetrahydro-pyran-4-yl)-phenyl]-amide], the IC50 in assay [1] turned out to be 28 nM; at c-fms it was 8.4 nM.
Turning to `CN(C)C(=O)C1(c2ccc(NC(=O)c3nc(C#N)c[nH]3)c(C3=CCC(C)(C)CC3)c2)CCOCC1` [Example 29, 4-Cyano-1H-imidazole-2-carboxylic acid [4-(4-dimethylcarbamoyl-tetrahydro-pyran-4-yl)-2-(4,4-dimethyl-cyclohex-1-enyl)-phenyl]-amide], the values for the IC50 (in assay [1]; at c-fms) were 11 nM and 1.6 nM, respectively.
